Where two headings read alike, the source gives them in different places. Blank lines part the entries; values can stand above or below the compound they belong to.
Biological target: human RIP1 kinase domain (2-375) (Homo sapiens (Human), UniProt Q13546)
Experiment: biochemical
Type: biochemical
Summary of the method: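 Ki^app comes from Morrison tight-binding fits of fractional activity versus compound concentration. Activity was read as ADP production, via tracer displacement lowering fluorescence polarization (633 nm laser). Conditions: 2 h, 50 nM insect-cell-expressed enzyme, 50 uM ATP, 30 mM MgCl2, 1 mM DTT, 0.5% DMSO, pH 7.5 Hepes.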

[1] = human RIP1 kinase domain (2-375), Transcreener ADP assay, 50 uM ATP, 2 hours incubation, read-out: RIP1 Ki
[2] = human RIP1 kinase domain (2-375), 50 uM ATP, 2 hours incubation, Transcreener ADP assay, read-out: RIP1 Ki

Sequence of human RIP1 kinase domain (2-375) (Q13546 2-375): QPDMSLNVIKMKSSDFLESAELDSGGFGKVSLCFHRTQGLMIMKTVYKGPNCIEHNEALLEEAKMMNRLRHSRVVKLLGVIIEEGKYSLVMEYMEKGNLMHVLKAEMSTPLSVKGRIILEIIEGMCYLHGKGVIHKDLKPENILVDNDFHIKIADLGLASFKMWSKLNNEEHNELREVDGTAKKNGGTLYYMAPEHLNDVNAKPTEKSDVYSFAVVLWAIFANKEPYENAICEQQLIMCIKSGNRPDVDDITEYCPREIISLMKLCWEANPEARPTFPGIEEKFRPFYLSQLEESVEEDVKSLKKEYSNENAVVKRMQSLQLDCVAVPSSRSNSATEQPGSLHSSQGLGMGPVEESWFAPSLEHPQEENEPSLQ

Compound: CC1CCc2cnc(C(=O)N[C@H]3COc4ccccc4N(C)C3=O)n2C1 (stereo partly drawn) [Example 11, 6-methyl-N—((S)-5-methyl-4-oxo-2,3,4,5-tetrahydrobenzo[b][1,4]oxazepin-3-yl)-5,6,7,8-tetrahydroimidazo[1,5-a]pyridine-3-carboxamide]
Ki (Table 1, apparent Ki (Morrison tight-binding fit), 50 nM RIP1 kinase domain, 50 uM ATP, 2 hours incubation, read-out: RIP1 Ki): 329 nM

Compound: CC[C@@]1(C)OCc2cnc(C(=O)N[C@H]3CCn4nc(C)c(C)c4N(C)C3=O)cc21 [Example 276, (R)-1-ethyl-1-methyl-N—((S)-2,3,4-trimethyl-5-oxo-5,6,7,8-tetrahydro-4H-pyrazolo[1,5-a][1,3]diazepin-6-yl)-1,3-dihydrofuro[3,4-c]pyridine-6-carboxamide]
Ki [1]: 93.6 nM

Compound: Cc1cc2n(n1)CC[C@H](NC(=O)c1cc3c(cn1)COC3(C)C1CC1)C(=O)N2C (stereo partly drawn) [Example 287, 1-cyclopropyl-N—((S)-2,4-dimethyl-5-oxo-5,6,7,8-tetrahydro-4H-pyrazolo[1,5-a][1,3]diazepin-6-yl)-1-methyl-1,3-dihydrofuro[3,4-c]pyridine-6-carboxamide]
Ki [1]: 1400 nM

The next lines start with the values.

Ki [2]: 50.4 nM
Compound: CN1C(=O)[C@@H](NC(=O)c2nnn3c2CC2(CCCC2)C3)COc2ccccc21 [Example 118, (S)—N-(5-methyl-4-oxo-2,3,4,5-tetrahydrobenzo[b][1,4]oxazepin-3-yl)-4′H,6′H-spiro[cyclopentane-1,5′-pyrrolo[1,2-c][1,2,3]triazole]-3′-carboxamide]

Ki (tight-binding apparent inhibition constant, human RIP1 kinase domain (2-375) 50 nM, 50 uM ATP, 2 hours, read-out: Ki): 5.1 nM
Compound: Cc1cc2n(n1)CC[C@H](NC(=O)c1ncn(Cc3cccc(Cl)c3Cl)n1)C(=O)N2C [Example 472, 1-[(2,3-dichlorophenyl)methyl]-N-(6S)-2,4-dimethyl-5-oxo-7,8-dihydro-6H-pyrazolo[1,5-a][1,3]diazepin-6-yl-1,2,4-triazole-3-carboxamide]

Ki [1]: 16.4 nM
Compound: CN1C(=O)[C@@H](NC(=O)c2ncn(Cc3cccc(F)c3F)n2)CCn2nc([C@@H]3CC3(F)F)cc21 [Example 320, 1-(2,3-difluorobenzyl)-N—((S)-2-((S)-2,2-difluorocyclopropyl)-4-methyl-5-oxo-5,6,7,8-tetrahydro-4H-pyrazolo[1,5-a][1,3]diazepin-6-yl)-1H-1,2,4-triazole-3-carboxamide]

Ki [2]: 92.5 nM
Compound: CN1C(=O)C(NC(=O)c2ncn(Cc3ccccc3)n2)CCCn2nccc21 (centres unmarked) [Example 94, 1-benzyl-N-(4-methyl-5-oxo-4,5,6,7,8,9-hexahydropyrazolo[1,5-a][1,3]diazocin-6-yl)-1H-1,2,4-triazole-3-carboxamide]

Ki (Ki): 39 nM
Compound: CN1C(=O)[C@@H](NC(=O)c2ncc3cnn(C4CCOCC4)c3n2)COc2ccccc21 [Example 558, N-[(3S)-5-methyl-4-oxo-2,3-dihydro-1,5-benzoxazepin-3-yl]-1-tetrahydropyran-4-yl-pyrazolo[3,4-d]pyrimidine-6-carboxamide]
